Here are results for 13 molecules from patent publication US9302991B2, “Arylamide derivatives as TTX-S blockers” (RaQualia Pharma Inc., priority 2010, dated 2016).

One experiment deals with T1, human Nav1.3 channels (Homo sapiens, UniProt Q9NY46).
T1 construct: expressed in transfected cells; host or cells: HEK293
Kind of experiment: FRET assay, human Nav1.3 (EFS on FDSS). The format is cell-based. As to conditions: HEK293 cells expressing human Nav1.3, read-out: IC50 against Nav1.3. The gist of the method: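 HEK293 cells expressing the channel, loaded with 10 microM CC2-DMPE then 15 microM DiSBAC2(3) plus 0.555 mM VABSC-1 in pH 7.4 HEPES buffer at room temperature. Membrane potential changes evoked by electrical field stimulation after compound addition; IC50 from 440 nm-normalized FRET ratios.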

A further experiment deals with T2, human Nav1.7 channels (Homo sapiens, UniProt Q15858).
T2 construct: expressed in transfected cells; host or cells: CHO
T2 sequence (Q15858 whole entry): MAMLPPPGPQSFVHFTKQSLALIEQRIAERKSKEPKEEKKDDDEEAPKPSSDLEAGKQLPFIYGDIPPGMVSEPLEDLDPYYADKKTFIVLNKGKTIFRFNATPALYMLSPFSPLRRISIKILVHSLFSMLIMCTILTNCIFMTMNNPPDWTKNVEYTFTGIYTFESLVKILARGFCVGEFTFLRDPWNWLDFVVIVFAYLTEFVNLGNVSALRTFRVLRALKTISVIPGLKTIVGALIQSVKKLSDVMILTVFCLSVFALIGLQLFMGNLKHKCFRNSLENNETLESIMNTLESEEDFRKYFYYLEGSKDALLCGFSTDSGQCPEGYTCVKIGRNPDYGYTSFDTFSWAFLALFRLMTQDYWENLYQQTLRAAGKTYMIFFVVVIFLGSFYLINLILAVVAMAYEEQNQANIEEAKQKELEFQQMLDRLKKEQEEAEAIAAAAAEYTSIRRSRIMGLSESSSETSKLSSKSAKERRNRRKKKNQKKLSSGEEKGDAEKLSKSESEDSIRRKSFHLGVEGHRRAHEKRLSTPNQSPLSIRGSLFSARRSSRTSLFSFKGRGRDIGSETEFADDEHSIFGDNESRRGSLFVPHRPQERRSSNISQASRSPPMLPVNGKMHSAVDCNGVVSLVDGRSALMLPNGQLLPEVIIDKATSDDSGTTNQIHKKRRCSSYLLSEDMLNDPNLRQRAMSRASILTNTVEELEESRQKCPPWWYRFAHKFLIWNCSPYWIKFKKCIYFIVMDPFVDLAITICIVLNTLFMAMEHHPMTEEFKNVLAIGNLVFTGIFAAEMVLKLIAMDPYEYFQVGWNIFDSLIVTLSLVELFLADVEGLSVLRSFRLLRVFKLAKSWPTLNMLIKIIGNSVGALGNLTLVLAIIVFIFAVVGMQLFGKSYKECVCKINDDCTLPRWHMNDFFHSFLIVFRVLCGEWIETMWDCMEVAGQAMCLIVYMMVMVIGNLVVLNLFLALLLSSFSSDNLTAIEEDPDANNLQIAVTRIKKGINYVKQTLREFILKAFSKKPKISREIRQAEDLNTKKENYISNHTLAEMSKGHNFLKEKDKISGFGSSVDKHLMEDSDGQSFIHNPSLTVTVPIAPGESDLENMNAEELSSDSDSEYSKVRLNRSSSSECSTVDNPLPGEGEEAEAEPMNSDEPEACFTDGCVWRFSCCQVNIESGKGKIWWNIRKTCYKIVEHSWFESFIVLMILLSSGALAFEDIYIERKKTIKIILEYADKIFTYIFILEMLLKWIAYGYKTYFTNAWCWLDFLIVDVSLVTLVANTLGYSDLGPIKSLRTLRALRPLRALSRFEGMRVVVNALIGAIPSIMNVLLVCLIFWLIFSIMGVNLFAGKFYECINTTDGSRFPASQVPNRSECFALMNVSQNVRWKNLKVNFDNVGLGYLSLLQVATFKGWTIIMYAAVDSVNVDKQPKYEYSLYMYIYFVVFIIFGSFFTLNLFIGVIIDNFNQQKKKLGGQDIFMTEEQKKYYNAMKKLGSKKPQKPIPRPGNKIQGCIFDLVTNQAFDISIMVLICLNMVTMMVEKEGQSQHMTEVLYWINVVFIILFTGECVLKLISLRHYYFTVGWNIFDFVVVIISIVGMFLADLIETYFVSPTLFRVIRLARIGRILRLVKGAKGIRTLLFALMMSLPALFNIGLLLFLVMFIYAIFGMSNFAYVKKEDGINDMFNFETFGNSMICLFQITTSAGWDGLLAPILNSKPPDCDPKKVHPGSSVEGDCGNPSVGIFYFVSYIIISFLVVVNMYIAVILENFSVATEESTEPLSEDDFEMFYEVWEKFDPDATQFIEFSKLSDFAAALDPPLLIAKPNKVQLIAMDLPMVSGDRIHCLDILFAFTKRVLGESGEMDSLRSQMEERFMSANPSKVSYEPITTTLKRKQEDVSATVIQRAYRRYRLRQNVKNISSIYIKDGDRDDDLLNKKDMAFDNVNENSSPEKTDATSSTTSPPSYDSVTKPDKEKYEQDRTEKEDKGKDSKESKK
Kind of experiment: FRET assay, human Nav1.7 (EFS on FDSS). The class given is cell-based. Particulars: CHO cells expressing human Nav1.7, read-out: IC50 against Nav1.7. The gist of the method: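 CHO cells stably expressing the channel, loaded with CC2-DMPE (10 µM) then DiSBAC2(3) (15 µM) plus VABSC-1, in HEPES-buffered saline pH 7.4 at room temperature. Electrical field stimulation on FDSS; FRET ratio at 440 nm fitted for IC50.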

A value given as a limit tells only on which side of the number the result lay.

T1 sequence (Q9NY46 whole entry): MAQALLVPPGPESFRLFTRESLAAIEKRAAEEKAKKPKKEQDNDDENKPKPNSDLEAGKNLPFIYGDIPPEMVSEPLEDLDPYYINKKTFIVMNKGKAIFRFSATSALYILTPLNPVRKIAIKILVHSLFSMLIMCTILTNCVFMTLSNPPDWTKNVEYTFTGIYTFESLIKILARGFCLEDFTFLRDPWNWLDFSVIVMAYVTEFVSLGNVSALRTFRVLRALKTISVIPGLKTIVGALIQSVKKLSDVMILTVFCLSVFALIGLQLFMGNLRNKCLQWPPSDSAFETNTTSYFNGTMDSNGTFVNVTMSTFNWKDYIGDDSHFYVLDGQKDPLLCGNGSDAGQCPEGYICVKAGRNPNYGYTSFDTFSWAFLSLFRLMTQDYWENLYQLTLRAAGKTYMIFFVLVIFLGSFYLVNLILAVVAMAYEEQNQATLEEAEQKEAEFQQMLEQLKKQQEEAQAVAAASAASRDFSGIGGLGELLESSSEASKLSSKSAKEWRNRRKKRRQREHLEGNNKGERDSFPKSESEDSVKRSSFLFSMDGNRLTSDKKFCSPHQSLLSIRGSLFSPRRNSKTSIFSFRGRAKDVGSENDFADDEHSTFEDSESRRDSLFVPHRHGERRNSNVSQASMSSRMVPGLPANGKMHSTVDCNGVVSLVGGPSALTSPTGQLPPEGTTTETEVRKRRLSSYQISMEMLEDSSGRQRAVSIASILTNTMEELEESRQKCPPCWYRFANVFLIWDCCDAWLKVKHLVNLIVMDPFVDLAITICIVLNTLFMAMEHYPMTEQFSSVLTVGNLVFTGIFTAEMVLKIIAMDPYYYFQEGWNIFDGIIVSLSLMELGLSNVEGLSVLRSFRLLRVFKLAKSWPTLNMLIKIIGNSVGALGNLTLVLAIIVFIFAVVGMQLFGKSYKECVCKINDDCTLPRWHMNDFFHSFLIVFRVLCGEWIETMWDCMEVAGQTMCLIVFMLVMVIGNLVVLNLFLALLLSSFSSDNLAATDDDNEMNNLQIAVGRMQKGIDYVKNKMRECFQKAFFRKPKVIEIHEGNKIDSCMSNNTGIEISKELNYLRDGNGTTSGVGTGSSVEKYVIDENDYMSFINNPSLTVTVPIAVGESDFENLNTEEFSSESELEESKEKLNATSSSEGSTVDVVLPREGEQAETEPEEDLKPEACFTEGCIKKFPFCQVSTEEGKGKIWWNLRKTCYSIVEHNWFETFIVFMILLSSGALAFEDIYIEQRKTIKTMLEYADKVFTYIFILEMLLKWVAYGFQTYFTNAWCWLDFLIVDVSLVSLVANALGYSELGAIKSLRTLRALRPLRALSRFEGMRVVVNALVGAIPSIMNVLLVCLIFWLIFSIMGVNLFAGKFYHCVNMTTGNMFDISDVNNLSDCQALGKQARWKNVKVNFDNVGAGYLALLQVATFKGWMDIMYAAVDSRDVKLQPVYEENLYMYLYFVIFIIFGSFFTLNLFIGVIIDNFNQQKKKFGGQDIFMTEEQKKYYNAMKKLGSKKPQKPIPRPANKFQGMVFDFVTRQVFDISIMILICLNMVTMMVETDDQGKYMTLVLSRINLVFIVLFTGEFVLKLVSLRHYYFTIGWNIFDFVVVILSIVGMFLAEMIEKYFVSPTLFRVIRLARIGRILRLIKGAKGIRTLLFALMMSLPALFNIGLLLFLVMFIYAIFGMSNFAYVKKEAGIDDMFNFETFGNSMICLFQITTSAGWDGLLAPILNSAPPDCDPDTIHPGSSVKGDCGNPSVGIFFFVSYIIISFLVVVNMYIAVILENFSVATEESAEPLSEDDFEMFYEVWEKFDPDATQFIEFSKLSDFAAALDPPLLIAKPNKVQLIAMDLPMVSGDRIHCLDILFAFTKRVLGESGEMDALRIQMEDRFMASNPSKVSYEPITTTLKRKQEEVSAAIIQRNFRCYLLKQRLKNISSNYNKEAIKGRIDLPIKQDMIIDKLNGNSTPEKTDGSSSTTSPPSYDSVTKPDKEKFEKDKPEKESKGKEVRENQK

Consider `CC(=O)Nc1cc(C(=O)NCc2cnc(OCC(F)(F)F)c(C)c2)cc(C)n1` [Example 371, 2-acetamido-6-methyl-N-((5-methyl-6-(2,2,2-trifluoroethoxy)pyridin-3-yl)methyl)isonicotinamide], for which the IC50 at human Nav1.3 channels and on human Nav1.7 channels was less than 1000 nM each time.

Consider `CCC(=O)Nc1cc(C(=O)NCc2cnc(OCC(F)(F)F)c(C)c2)cc(C)n1` [Example 372, 2-methyl-N-((5-methyl-6-(2,2,2-trifluoroethoxy)pyridin-3-yl)methyl)-6-propionamidoisonicotinamide], for which the IC50 at human Nav1.3 channels and at human Nav1.7 channels was less than 1000 nM each time.

On to `CCC(=O)Nc1nccc(C(=O)NCc2cnc(OCC(F)(F)F)c(Cl)c2)n1` [Example 410, N-((5-chloro-6-(2,2,2-trifluoroethoxy)pyridin-3-yl)methyl)-2-propionamidopyrimidine-4-carboxamide], for which the IC50 at human Nav1.3 channels and on human Nav1.7 channels was less than 1000 nM throughout.

Regarding `O=C(NCc1cnc(OCC(F)(F)F)c(Cl)c1)c1ccnc(NC(=O)C2CC2)n1` [Example 411, N-((5-chloro-6-(2,2,2-trifluoroethoxy)pyridin-3-yl)methyl)-2-(cyclopropanecarboxamido)pyrimidine-4-carboxamide], the IC50 at human Nav1.3 channels and at human Nav1.7 channels was less than 1000 nM throughout.

For `COc1cc(CNC(=O)c2cc(C)nc(NC(=O)C(C)C)n2)cnc1OCC(F)(F)F` [Example 443, 2-isobutyramido-N-((5-methoxy-6-(2,2,2-trifluoroethoxy)pyridin-3-yl)methyl)-6-methylpyrimidine-4-carboxamide], the IC50 at human Nav1.3 channels and on human Nav1.7 channels was less than 1000 nM in each case.

In the case of `CCC(=O)Nc1cc(C(=O)NCc2cccc(OCC(F)(F)F)n2)cc(C)n1` [Example 467, 2-methyl-6-propionamido-N-((6-(2,2,2-trifluoroethoxy)pyridin-2-yl)methyl)isonicotinamide], the IC50 at human Nav1.3 channels and at human Nav1.7 channels was less than 1000 nM each time.

Turning to `Cc1cc(C(=O)NCc2ccc(OCC(F)(F)F)nc2)cc(NC(=O)C(C)C)n1` [Example 483, 2-isobutyramido-6-methyl-N-((6-(2,2,2-trifluoroethoxy)pyridin-3-yl)methyl)isonicotinamide], the IC50 on human Nav1.3 channels and on human Nav1.7 channels was less than 1000 nM each time.

Regarding `COc1cc(CNC(=O)c2cc(C)nc(NC(=O)C(C)C)c2)cnc1OCC(F)(F)F` [Example 492, 2-isobutyramido-N-((5-methoxy-6-(2,2,2-trifluoroethoxy)pyridin-3-yl)methyl)-6-methylisonicotinamide], the IC50 at human Nav1.3 channels and on human Nav1.7 channels was less than 1000 nM in each case.

For the molecule `COc1nc(OCC(F)(F)F)ccc1CNC(=O)c1cc(C)nc(NC(=O)C(C)C)c1` [Example 494, 2-isobutyramido-N-((2-methoxy-6-(2,2,2-trifluoroethoxy)pyridin-3-yl)methyl)-6-methylisonicotinamide], the IC50 at human Nav1.3 channels and on human Nav1.7 channels was less than 1000 nM in each case.

For `CCC(=O)Nc1cc(C(=O)NCc2cccc(OC(F)(F)F)c2)ccn1` [Example 523, 2-propionamido-N-(3-(trifluoromethoxy)benzyl)isonicotinamide], the IC50 on human Nav1.3 channels and on human Nav1.7 channels was less than 1000 nM in each case.

As for `O=C(NCc1cccc(OC(F)(F)F)c1)c1ccnc(NC(=O)C2CC2)c1` [Example 524, 2-(cyclopropanecarboxamido)-N-(3-(trifluoromethoxy)benzyl)isonicotinamide], the IC50 on human Nav1.3 channels and at human Nav1.7 channels was less than 1000 nM throughout.

Regarding `CC(=O)Nc1cc(C(=O)NCc2cccc(OC(F)(F)F)c2)cc(C)n1` [Example 525, 2-acetamido-6-methyl-N-(3-(trifluoromethoxy)benzyl)isonicotinamide], the IC50 at human Nav1.3 channels and at human Nav1.7 channels was less than 1000 nM in each case.

For `CCC(=O)Nc1cc(C(=O)NCc2cccc(OC(F)(F)F)c2)cc(C)n1` [Example 526, 2-methyl-6-propionamido-N-(3-(trifluoromethoxy)benzyl)isonicotinamide], the IC50 at human Nav1.3 channels and at human Nav1.7 channels was less than 1000 nM in each case.
